Converted amounts (≈) assume the structure as drawn. Read-outs that look alike come from different tables or passages of the source.
Key:
E. coli 0-111 = experiment: Antibacterial spectra, agar dilution method; type: cell-based
Text: (§1) (mcg/ml., agar dilution method)
as §1
(§2) (mcg/ml, agar dilution method)
(§3) (mcg./ml., agar dilution method)

E. coli NIHJ JC-2 = experiment: Antibacterial spectra, agar dilution method; type: cell-based; settings: Escherichia coli
Text: as §1, §1, §2, §3

S. aureus 1840 = experiment: Antibacterial spectra, agar dilution method; type: cell-based
Text: as §1, §1, §2, §3

S. aureus 209P = experiment: Antibacterial spectra, agar dilution method; type: cell-based; settings: for MIC: Staphylococcus aureus, 209P
Text: as §1, §1, §2, §3

E. coli T-7 = experiment: Antibacterial spectra, agar dilution method; type: cell-based; settings: Escherichia coli
Text: (§4) |(mcg./ml., agar dilution method)

P. vulgaris IFO 3988 = experiment: Antibacterial spectra, agar dilution method; type: cell-based; settings: Proteus vulgaris, IFO3988; P. vulgaris IFO 3988; agar dilution method; Table 11; read-out: Antibacterial spectra
Text: as §4

K. pneumoniae DT = experiment: Antibacterial spectra, agar dilution method; type: cell-based; settings: Klebsiella pneumoniae
P. morganii Eb53 = experiment: Antibacterial spectra, agar dilution method; type: cell-based; settings: Morganella morganii
Text: as §2, §3

Escherichia coli 0111 = experiment: Protective Effect on Infected Mice; type: in vivo; settings: Escherichia coli, 0111, sc, 168 h, Table 14; male ICR/SLC mice; i.p. E. coli 0111; single subcutaneous dose immediately after challenge; 7 days; read-out: ED50
Text: Protective Effect (ED50 * , mg/kg) on Infected Mice
*Test animals: male mice (ICR/SLC) 5 mice per group per single dose
Infection: intraperitoneally with Escherichia coli 0111
Administration: a single subcutaneous dose immediately after challenge
Observation period: 7 days
*Test animals: male mice (ICR/SLC) 5 mice per group single dose

[1] = Escherichia coli, 0111, E. coli 0-111, Table 11
[2] = NIHJJC2, read-out: Antibacterial spectra, E. coli NIHJ JC-2, Table 11
[3] = Staphylococcus aureus, 1840, read-out: Antibacterial spectra, S. aureus 1840, Table 11
[4] = read-out: Antibacterial spectra, S. aureus 209P, Table 11
[5] = T7, E. coli T-7, agar dilution method, Table 11, read-out: Antibacterial spectra
[6] = EB53, read-out: Antibacterial spectra
[7] = NIHJJC2, E. coli NIHJ JC-2, Table 11, read-out: Antibacterial spectra
[8] = P. morganii Eb53, agar dilution method, Table 11, read-out: Antibacterial spectra
[9] = T7, read-out: Antibacterial spectra
[10] = Escherichia coli, 0111, E. coli 0-111, tables in the Examples
[11] = Staphylococcus aureus, 1840, read-out: Antibacterial spectra, S. aureus 1840, tables in the Examples
[12] = read-out: Antibacterial spectra, S. aureus 209P, tables in the Examples

SMILES	MIC (E. coli 0-111; [1]) [µg/mL]	MIC (E. coli NIHJ JC-2; [2]) [µg/mL]	MIC (S. aureus 1840; [3]) [µg/mL]	MIC (S. aureus 209P; [4]) [µg/mL]	MIC (P. vulgaris IFO 3988) [µg/mL]	MIC (K. pneumoniae DT; Table 11) [µg/mL]	MIC (E. coli NIHJ JC-2; [7]) [µg/mL]	also measured
Cn1c(N)nnc1SCC1=C(C(=O)O)N2C(=O)C(NC(=O)Cc3csc(N)n3)C2SC1 (stereo not shown) [Compound 31]	≤ 0.1	0.2 (≈ 0.414 µM)	1.56 (≈ 3.23 µM)	0.78 (≈ 1.62 µM)	0.2 (≈ 0.414 µM)	≤ 0.1		MIC (E. coli T-7; [5]): 3.13 µg/mL (≈ 6.49 µM); MIC (P. morganii Eb53; [6]): 1.56 µg/mL (≈ 3.23 µM)
Cc1cnc(SCC2=C(C(=O)O)N3C(=O)C(NC(=O)Cc4csc(N)n4)C3SC2)nc1N (stereo not shown) [Compound 32]	0.78 (≈ 1.58 µM)		1.56 (≈ 3.16 µM)	0.2 (≈ 0.405 µM)	0.78 (≈ 1.58 µM)	0.39 (≈ 0.79 µM)	1.56 (≈ 3.16 µM)	MIC (E. coli T-7; [5]): 50 µg/mL (≈ 101 µM); MIC (P. morganii Eb53; [8]): 100 µg/mL (≈ 203 µM)
Cc1nnc(SCC2=C(C(=O)O)N3C(=O)C(NC(=O)Cc4csc(N)n4)C3SC2)o1 (stereo not shown) [Compound 38]	0.39 (≈ 0.832 µM)		0.78 (≈ 1.66 µM)	0.39 (≈ 0.832 µM)		0.39 (≈ 0.832 µM)	1.56 (≈ 3.33 µM)	MIC (P. morganii Eb53; [8]): 25 µg/mL (≈ 53.4 µM)
Nc1nc(CC(=O)NC2C(=O)N3C(C(=O)O)=C(CSc4nnc[nH]4)CSC23)cs1 (stereo not shown) [Compound 41]	0.78 (≈ 1.72 µM)	0.78 (≈ 1.72 µM)	0.78 (≈ 1.72 µM)	0.39 (≈ 0.86 µM)		0.2 (≈ 0.441 µM)		MIC (P. morganii Eb53; [8]): 25 µg/mL (≈ 55.1 µM)
Cc1nnc(SCC2=C(C(=O)O)N3C(=O)C(NC(=O)Cc4csc(N)n4)C3SC2)n1C (stereo not shown) [Compound 42]	0.1 (≈ 0.208 µM)	0.2 (≈ 0.415 µM)	1.56 (≈ 3.24 µM)	0.39 (≈ 0.81 µM)		0.1 (≈ 0.208 µM)		MIC (P. morganii Eb53; [6]): 1.56 µg/mL (≈ 3.24 µM); ED50 (Escherichia coli 0111): 0.38 mg/kg
Cn1ccnc1SCC1=C(C(=O)O)N2C(=O)C(NC(=O)Cc3csc(N)n3)C2SC1 (stereo not shown) [Compound 44]	0.39 (≈ 0.836 µM)	0.78 (≈ 1.67 µM)	1.56 (≈ 3.34 µM)	0.39 (≈ 0.836 µM)	0.39 (≈ 0.836 µM)	0.39 (≈ 0.836 µM)		MIC (E. coli T-7; [9]): 6.25 µg/mL (≈ 13.4 µM)
Nc1nc(CC(=O)NC2C(=O)N3C(C(=O)O)=C(CSc4nnc(C(F)(F)F)s4)CSC23)cs1 (stereo not shown) [Compound 45]	0.78 (≈ 1.45 µM)		0.78 (≈ 1.45 µM)	≤ 0.2	0.78 (≈ 1.45 µM)	0.78 (≈ 1.45 µM)	3.13 (≈ 5.81 µM)	MIC (E. coli T-7; [5]): 25 µg/mL (≈ 46.4 µM)
Cc1csc(SCC2=C(C(=O)O)N3C(=O)C(NC(=O)Cc4csc(N)n4)C3SC2)n1 (stereo not shown) [Compound 47]	0.78 (≈ 1.61 µM)		0.78 (≈ 1.61 µM)	≤ 0.2	0.39 (≈ 0.806 µM)	0.39 (≈ 0.806 µM)	1.56 (≈ 3.23 µM)	MIC (E. coli T-7; [9]): 12.5 µg/mL (≈ 25.8 µM)
Cc1nnc(SCC2=C(C(=O)O)N3C(=O)C(NC(=O)Cc4csc(=O)[nH]4)[C@H]3SC2)s1 (stereo partly shown) [Compound 55, 7-[2-(2-oxo-4-thiazolin-4-yl)acetamido]-3-(5-methyl-1,3,4-thiadiazol-2-yl)thiomethyl-3-cephem-4-carboxylic acid]	0.78 (≈ 1.61 µM)		0.78 (≈ 1.61 µM)	0.2 (≈ 0.412 µM)		1.56 (≈ 3.21 µM)	1.56 (≈ 3.21 µM)	
Cn1nnnc1SCC1=C(C(=O)O)N2C(=O)C(NC(=O)Cc3csc(=S)[nH]3)C2SC1 (stereo not shown) [Compound 64]	1.56 (≈ 3.21 µM)		1.56 (≈ 3.21 µM)	< 0.78		< 0.78		
Cn1nnnc1SCC1=C(C(=O)O)N2C(=O)C(NC(=O)Cc3csc(=O)[nH]3)[C@H]2SC1 (stereo partly shown) [Example 2, 7-[2-(2-oxo-4-thiazolin-4-yl)acetamido]-3-(1-methyltetrazol-5-yl)thiomethyl-3-cephem-4-carboxylic acid]								MIC (E. coli 0-111; [10]): < 0.78 µg/mL; MIC (E. coli NIHJ JC-2; NIHJJC2, read-out: Antibacterial spectra, E. coli NIHJ JC-2, tables in the Examples): < 0.78 µg/mL; MIC (S. aureus 1840; [11]): < 0.78 µg/mL; MIC (S. aureus 209P; [12]): < 0.78 µg/mL; MIC (K. pneumoniae DT; tables in the Examples): < 0.78 µg/mL
O=C(Cc1csc(=O)[nH]1)NC1C(=O)N2C(C(=O)O)=C(CSc3nncs3)CS[C@H]12 (stereo partly shown) [Example 4, 7-[2-(2-oxo-4-thiazolin-4-yl)acetamido]-3-(1,3,4-thiadiazol-2-yl)thiomethyl-3-cephem-4-carboxylic acid]								MIC (E. coli 0-111; [10]): 1.56 µg/mL (≈ 3.31 µM); MIC (S. aureus 1840; [11]): < 0.78 µg/mL; MIC (S. aureus 209P; [12]): < 0.78 µg/mL; MIC (K. pneumoniae DT; tables in the Examples): 1.56 µg/mL (≈ 3.31 µM)
CC(=O)OCC1=C(C(=O)[O-])N2C(=O)C(NC(=O)Cc3csc(=S)[nH]3)[C@H]2SC1.[Na+] (stereo partly shown) [Example 21, sodium 7-[2-(2-thioxo-4-thiazolin-4-yl)-acetamido]-3-acetoxymethyl-3-cephem-4-carboxylate]								Antibacterial spectra (S. aureus 1840; S. aureus 1840, tables in the Examples): 1.56 µg/mL; Antibacterial spectra (S. aureus 209P; S. aureus 209P, tables in the Examples): < 0.78 µg/mL

From patent US4421912A, “Cephalosporin derivatives” (Takeda Chemical Industries, Ltd., priority 1973, dated 1983)
